{
  "source": "ChEMBL document CHEMBL4706659",
  "about": "“Design, synthesis and biological evaluation of novel 2,4-diaryl pyrimidine derivatives as selective EGFR inhibitors” (Eur J Med Chem, 2021)",
  "key": {"[1]": {"assay": "AUC (0 to infinity) in Sprague-Dawley rat at 10 mg/kg, po administered as single dose", "assay_type": "ADME, organism-based", "set-up": "time infinity, route oral, dose 10 mg/kg", "details": "in vivo"}, "[2]": {"assay": "Cmax in Sprague-Dawley rat at 10 mg/kg, po administered as single dose", "assay_type": "ADME, organism-based", "set-up": "route oral, dose 10 mg/kg", "details": "in vivo"}, "NCI-H1975 [3]": {"system": "NCI-H1975", "assay": "Induction of mitochondrial membrane potential loss in human NCI-H1975 cells harboring EGFR T790M/L858R mutant assessed as cell population with mitochondrial membrane potential collapse at 5 nM measured after 24 hrs by JC1 staining based fluorescence microscopic analysis (reference value: 5.49%)", "assay_type": "functional"}, "NCI-H1975 [4]": {"system": "NCI-H1975", "assay": "Induction of apoptosis in human NCI-H1975 cells harboring EGFR T790M/L858R mutant assessed as necrotic cells at 5 nM measured after 72 hrs by Annexin-V-FITC/propidium iodide staining based flow cytometry (reference value: 0.49%)", "assay_type": "functional"}, "NCI-H1975 [5]": {"system": "NCI-H1975", "assay": "Induction of mitochondrial membrane potential loss in human NCI-H1975 cells harboring EGFR T790M/L858R mutant assessed as cells with intact mitochondrial membrane potential at 10 nM measured after 24 hrs by JC1 staining based fluorescence microscopic analysis (reference value: 94.51%)", "assay_type": "functional"}, "NCI-H1975 [6]": {"system": "NCI-H1975", "assay": "Induction of apoptosis in human NCI-H1975 cells harboring EGFR T790M/L858R mutant assessed as early apoptotic cells at 1 nM measured after 48 hrs by Annexin-V-FITC/propidium iodide staining based flow cytometry (reference value: 0.82%)", "assay_type": "functional"}, "[7]": {"assay": "Clearance in Sprague-Dawley rat at 2 mg/kg, iv administered as single dose", "assay_type": "ADME, organism-based", "details": "in vivo"}, "[8]": {"assay": "Cmax in Sprague-Dawley rat at 2 mg/kg, iv administered as single dose", "assay_type": "ADME, organism-based", "set-up": "route intravenous, dose 2 mg/kg", "details": "in vivo"}, "[9]": {"assay": "Selectivity ratio of IC50 for HK-2 cells to IC50 for antiproliferative activity against human NCI-H1975 cells"}, "NCI-H1975 [10]": {"system": "NCI-H1975", "assay": "Induction of apoptosis in human NCI-H1975 cells harboring EGFR T790M/L858R mutant assessed as late apoptotic cells at 10 nM measured after 48 hrs by Annexin-V-FITC/propidium iodide staining based flow cytometry (reference value: 0.04%)", "assay_type": "functional"}, "NCI-H1975 [11]": {"system": "NCI-H1975", "assay": "Induction of apoptosis in human NCI-H1975 cells harboring EGFR T790M/L858R mutant assessed as early apoptotic cells at 10 nM measured after 48 hrs by Annexin-V-FITC/propidium iodide staining based flow cytometry (reference value: 0.82%)", "assay_type": "functional"}, "NCI-H1975 [12]": {"system": "NCI-H1975", "assay": "Antitumor activity against human NCI-H1975 cells harboring EGFR T790M/L858R mutant xenografted in nude mouse assessed as tumor volume at 15 mg/kg, po administered once daily for 7 days (reference value: 843 mm3)", "assay_type": "functional", "details": "time 7 day"}, "NCI-H1975 [13]": {"system": "NCI-H1975", "assay": "Antimigratory activity against human NCI-H1975 cells harboring EGFR T790M/L858R mutant assessed as inhibition of cell migration at 9 nM measured after 48 hrs by phase contrast microscopic analysis relative to control", "assay_type": "functional"}, "[14]": {"assay": "MRT in Sprague-Dawley rat at 2 mg/kg, iv administered as single dose", "assay_type": "ADME, organism-based", "details": "in vivo"}, "Homo sapiens": {"species_on_record": "Homo sapiens", "assay": "Selectivity ratio of IC50 for inhibition of recombinant human GST-tagged EGFR expressed in baculovirus expression system to IC50 for inhibition of recombinant human GST-tagged EGFR T790M/L858R double mutant (668 to 1210 residues) expressed in baculovirus expression system"}, "[15]": {"assay": "Selectivity ratio of IC50 for human L02 cells to IC50 for antiproliferative activity against human NCI-H1975 cells", "assay_type": "toxicity, cell-based", "details": "L02 cells versus NCI-H1975 cells, read-out: Ratio IC50"}, "[16]": {"assay": "Half life in Sprague-Dawley rat at 2 mg/kg, iv administered as single dose", "assay_type": "ADME, organism-based", "details": "in vivo"}, "[17]": {"assay": "MRT in Sprague-Dawley rat at 10 mg/kg, po administered as single dose", "assay_type": "ADME, organism-based", "details": "in vivo"}, "NCI-H1975 [18]": {"system": "NCI-H1975", "assay": "Induction of apoptosis in human NCI-H1975 cells harboring EGFR T790M/L858R mutant assessed as necrotic cells at 1 nM measured after 72 hrs by Annexin-V-FITC/propidium iodide staining based flow cytometry (reference value: 0.49%)", "assay_type": "functional"}, "[19]": {"assay": "AUC (0 to infinity) in Sprague-Dawley rat at 2 mg/kg, iv administered as single dose", "assay_type": "ADME, organism-based", "set-up": "route intravenous, time infinity, dose 2 mg/kg", "details": "in vivo"}, "NCI-H1975 [20]": {"system": "NCI-H1975", "assay": "Induction of apoptosis in human NCI-H1975 cells harboring EGFR T790M/L858R mutant assessed as viable cells at 10 nM measured after 48 hrs by Annexin-V-FITC/propidium iodide staining based flow cytometry (reference value: 98.63%)", "assay_type": "functional", "details": "read-out: Activity"}, "NCI-H1975 [21]": {"system": "NCI-H1975", "assay": "Antiproliferative activity against human NCI-H1975 cells harboring EGFR T790M/L858R mutant by MTT assay", "assay_type": "functional, cell-based"}, "NCI-H1975 [22]": {"system": "NCI-H1975", "assay": "Induction of apoptosis in human NCI-H1975 cells harboring EGFR T790M/L858R mutant assessed as necrotic cells at 1 nM measured after 48 hrs by Annexin-V-FITC/propidium iodide staining based flow cytometry (reference value: […])", "assay_type": "functional"}, "[23]": {"assay": "AUC (0 to t) in Sprague-Dawley rat at 2 mg/kg, iv administered as single dose", "assay_type": "ADME, organism-based", "set-up": "dose 2 mg/kg", "details": "in vivo"}, "[24]": {"assay": "Selectivity ratio of IC50 for antiproliferative activity against human NCI-H292 cells harboring wild-type EGFR to IC50 for antiproliferative activity against human NCI-H1975 cells harboring EGFR T790M/L858R mutant", "assay_type": "functional"}, "[25]": {"assay": "Selectivity ratio of IC50 for HEK293-A cells to IC50 for antiproliferative activity against human NCI-H1975 cells", "assay_type": "toxicity, cell-based", "details": "HEK293-A cells versus NCI-H1975 cells, read-out: Ratio IC50"}, "NCI-H1975 [26]": {"system": "NCI-H1975", "assay": "Induction of apoptosis in human NCI-H1975 cells harboring EGFR T790M/L858R mutant assessed as late apoptotic cells at 5 nM measured after 72 hrs by Annexin-V-FITC/propidium iodide staining based flow cytometry (reference value: 0.13%)", "assay_type": "functional"}, "NCI-H1975 [27]": {"system": "NCI-H1975", "assay": "Induction of apoptosis in human NCI-H1975 cells harboring EGFR T790M/L858R mutant assessed as late apoptotic cells at 5 nM measured after 48 hrs by Annexin-V-FITC/propidium iodide staining based flow cytometry (reference value: 0.04%)", "assay_type": "functional"}, "HK-2": {"system": "HK-2", "assay": "Cytotoxicity against HK-2 cells assessed as reduction in cell viability by MTT assay", "assay_type": "cell-based", "details": "Homo sapiens"}, "NCI-H1975 [28]": {"system": "NCI-H1975", "assay": "Induction of apoptosis in human NCI-H1975 cells harboring EGFR T790M/L858R mutant assessed as late apoptotic cells at 1 nM measured after 48 hrs by Annexin-V-FITC/propidium iodide staining based flow cytometry (reference value: 0.04%)", "assay_type": "functional"}, "NCI-H1975 [29]": {"system": "NCI-H1975", "assay": "Induction of apoptosis in human NCI-H1975 cells harboring EGFR T790M/L858R mutant assessed as viable cells at 5 nM measured after 48 hrs by Annexin-V-FITC/propidium iodide staining based flow cytometry (reference value: 98.63%)", "assay_type": "functional", "details": "read-out: Activity"}, "NCI-H1975 [30]": {"system": "NCI-H1975", "assay": "Antimigratory activity against human NCI-H1975 cells harboring EGFR T790M/L858R mutant assessed as inhibition of cell migration at 9 nM measured after 24 hrs by phase contrast microscopic analysis relative to control", "assay_type": "functional"}, "[31]": {"assay": "AUC (0 to t) in Sprague-Dawley rat at 10 mg/kg, po administered as single dose", "assay_type": "ADME, organism-based", "set-up": "dose 10 mg/kg", "details": "in vivo"}, "NCI-H1975 [32]": {"system": "NCI-H1975", "assay": "Induction of apoptosis in human NCI-H1975 cells harboring EGFR T790M/L858R mutant assessed as viable cells at 5 nM measured after 72 hrs by Annexin-V-FITC/propidium iodide staining based flow cytometry (reference value: 98.66%)", "assay_type": "functional", "details": "read-out: Activity"}},
  "note": "pIC50: −log10 of the molar value.",
  "data": [
    {"smiles": "C=CC(=O)Nc1cc(Nc2nccc(-c3cn(C4CC4)c4ccccc34)n2)c(OC)cc1[S+]([O-])CCN(C)C", "note": "(centres undefined)", "values": [
      {"measurement": "AUC(0-inf)", "setting": "[1]", "result": 722, "unit": "ng·h/mL"},
      {"measurement": "Cmax", "setting": "[2]", "result": 203, "unit": "ng/mL"},
      {"measurement": "Activity", "setting": "NCI-H1975 [3]", "result": 26.9, "unit": "%"},
      {"measurement": "Activity", "setting": "NCI-H1975 [4]", "result": 10.51, "unit": "%"},
      {"measurement": "Activity", "setting": "NCI-H1975 [5]", "result": 59.69, "unit": "%"},
      {"measurement": "Activity", "setting": "NCI-H1975 [6]", "result": 10.89, "unit": "%"},
      {"measurement": "clearance", "setting": "[7]", "result": 98.1, "unit": "mL/min/kg"},
      {"measurement": "Cmax", "setting": "[8]", "result": 503, "unit": "ng/mL"},
      {"measurement": "Ratio IC50", "setting": "[9]", "result": 733},
      {"measurement": "Activity", "setting": "NCI-H1975 [10]", "result": 21.25, "unit": "%"},
      {"measurement": "Activity", "setting": "NCI-H1975 [11]", "result": 15.92, "unit": "%"},
      {"measurement": "Activity", "setting": "NCI-H1975 [12]", "result": 56, "unit": "mm3"},
      {"measurement": "inhibition at 0.009 µM", "setting": "NCI-H1975 [13]", "result": 74, "unit": "%"},
      {"measurement": "MRT", "setting": "[14]", "result": 1.01, "unit": "h"},
      {"measurement": "Ratio IC50", "setting": "Homo sapiens", "result": 15.8},
      {"measurement": "selectivity ratio", "setting": "[15]", "result": 584},
      {"measurement": "half-life", "setting": "[16]", "result": 0.7, "unit": "h"},
      {"measurement": "MRT", "setting": "[17]", "result": 3.61, "unit": "h"},
      {"measurement": "Activity", "setting": "NCI-H1975 [18]", "result": 9.52, "unit": "%"},
      {"measurement": "AUC(0-inf)", "setting": "[19]", "result": 340, "unit": "ng·h/mL"},
      {"measurement": "viability at 0.01 µM", "setting": "NCI-H1975 [20]", "result": 41.1, "unit": "%"},
      {"measurement": "pIC50", "setting": "NCI-H1975 [21]", "result": 8.10},
      {"measurement": "Activity", "setting": "NCI-H1975 [22]", "result": 5.52, "unit": "%"},
      {"measurement": "AUC(0-t)", "setting": "[23]", "result": 335, "unit": "ng·h/mL"},
      {"measurement": "Ratio IC50", "setting": "[24]", "result": 89.8},
      {"measurement": "selectivity ratio", "setting": "[25]", "result": 383},
      {"measurement": "Activity", "setting": "NCI-H1975 [26]", "result": 17.07, "unit": "%"},
      {"measurement": "Activity", "setting": "NCI-H1975 [27]", "result": 3.64, "unit": "%"},
      {"measurement": "pIC50", "setting": "HK-2", "result": 5.23},
      {"measurement": "Activity", "setting": "NCI-H1975 [28]", "result": 1.64, "unit": "%"},
      {"measurement": "viability at 0.005 µM", "setting": "NCI-H1975 [29]", "result": 68.2, "unit": "%"},
      {"measurement": "inhibition at 0.009 µM", "setting": "NCI-H1975 [30]", "result": 47, "unit": "%"},
      {"measurement": "AUC(0-t)", "setting": "[31]", "result": 676, "unit": "ng·h/mL"},
      {"measurement": "viability at 0.005 µM", "setting": "NCI-H1975 [32]", "result": 52.5, "unit": "%"}
    ]}
  ]
}
